Assay results as given in ChEMBL document CHEMBL5614381, “Farnesyl pyrophosphate synthase inhibitors with antiosteoporosis efficacy in ovariectomized rats: A mixed binding approach beyond bisphosphonates” (Eur J Med Chem, 2024).
pIC50: −log10 of the molar value. Active and inactive are the calls of the source. No cut-off for these calls is given here.

Columns and labels:
[1] = biological target: T1, Farnesyl pyrophosphate synthase (Homo sapiens, UniProt P14324); test: Inhibition of human recombinant FPPS using IPP as substrate preincubated with enzyme for 15 mins followed by substrate addition and measured after 1 hr
T1 sequence (P14324 whole entry): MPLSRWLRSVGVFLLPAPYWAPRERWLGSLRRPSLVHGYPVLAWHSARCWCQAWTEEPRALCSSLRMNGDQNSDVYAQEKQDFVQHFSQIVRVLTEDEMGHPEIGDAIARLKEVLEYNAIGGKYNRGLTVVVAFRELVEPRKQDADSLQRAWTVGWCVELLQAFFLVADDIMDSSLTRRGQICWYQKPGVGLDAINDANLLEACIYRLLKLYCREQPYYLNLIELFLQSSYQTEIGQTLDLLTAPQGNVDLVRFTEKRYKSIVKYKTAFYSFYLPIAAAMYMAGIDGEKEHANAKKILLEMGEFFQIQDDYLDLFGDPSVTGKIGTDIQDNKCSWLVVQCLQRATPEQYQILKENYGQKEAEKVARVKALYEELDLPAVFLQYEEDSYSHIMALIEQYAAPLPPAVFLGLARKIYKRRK

Rattus norvegicus [2] = test: (§1) Anti-osteoporosis activity against ovariectomized Wistar rat assessed as inhibition of ovariectomy-induced osteoporosis by measuring increase in serum OPG level at 10 mg/kg, po administered daily for 8 weeks following bilateral ovariectomy relative to ovariectomized control; type: functional; parameters: scale not given: the % may be the effect or the level left
Rattus norvegicus [3] = test: Anti-osteoporosis activity against ovariectomized Wistar rat assessed as inhibition of ovariectomy-induced osteoporosis by measuring reduction in serum RANKL level at 0.1 to 10 mg/kg, po administered daily for 8 weeks following bilateral ovariectomy; type: functional, organism-based; details: dose 0.1-10 mg/kg
Rattus norvegicus [4] = test: Anti-osteoporosis activity against ovariectomized Wistar rat assessed as inhibition of ovariectomy-induced osteoporosis by measuring decrease in urinary calcium level at 1 mg/kg, po administered daily for 8 weeks following bilateral ovariectomy; type: functional, organism-based
Rattus norvegicus [5] = test: Anti-osteoporosis activity against ovariectomized Wistar rat assessed as inhibition of ovariectomy-induced osteoporosis by measuring fold increase in serum osteoclacin level at 1 to 10 mg/kg, po administered daily for 8 weeks following bilateral ovariectomy relative to ovariectomized control; type: functional; details: dose 1-10 mg/kg
Rattus norvegicus [6] = test: Anti-osteoporosis activity against ovariectomized Wistar rat assessed as inhibition of ovariectomy-induced osteoporosis by measuring serum estradiol level at 0.1 to 10 mg/kg, po administered daily for 8 weeks following bilateral ovariectomy; type: functional, organism-based; details: dose 0.1-10 mg/kg
Rattus norvegicus [7] = test: Anti-osteoporosis activity against ovariectomized Wistar rat assessed as inhibition of ovariectomy-induced osteoporosis by measuring increase in bone mineral density at 1 mg/kg, po administered daily for 8 weeks following bilateral ovariectomy; type: functional, organism-based
Rattus norvegicus [8] = test: Anti-osteoporosis activity against ovariectomized Wistar rat assessed as inhibition of ovariectomy-induced osteoporosis by measuring decrease in serum phosphate level at 1 mg/kg, po administered daily for 8 weeks following bilateral ovariectomy; type: functional, organism-based
Rattus norvegicus [9] = test: as §1, with “decrease in bone-specific isoenzyme of alkaline phosphatase level” for “increase”, “serum” for “serum OPG level”, “to” for “to ovariectomized”; type: functional; details: 1344 h
Rattus norvegicus [10] = test: Anti-osteoporosis activity against ovariectomized Wistar rat assessed as inhibition of ovariectomy-induced osteoporosis by measuring reduction in serum RANKL/OPG level at 10 mg/kg, po administered daily for 8 weeks following bilateral ovariectomy relative to ovariectomized control; type: functional; details: 1344 h
Rattus norvegicus [11] = test: Anti-osteoporosis activity against ovariectomized Wistar rat assessed as inhibition of ovariectomy-induced osteoporosis by measuring increase in bone mineral content at 10 mg/kg, po administered daily for 8 weeks following bilateral ovariectomy; type: functional, organism-based
Rattus norvegicus [12] = test: Anti-osteoporosis activity against ovariectomized Wistar rat assessed as inhibition of ovariectomy-induced osteoporosis by measuring decrease in urinary phosphate level at 0.1 to 10 mg/kg, po administered daily for 8 weeks following bilateral ovariectomy; type: functional, organism-based; details: dose 0.1-10 mg/kg
Rattus norvegicus [13] = test: Anti-osteoporosis activity against ovariectomized Wistar rat assessed as inhibition of ovariectomy-induced osteoporosis by measuring decrease in urinary phosphate level at 7.5 ug/kg, ip administered once a week for 8 weeks following bilateral ovariectomy; type: functional, organism-based; details: dose 7.5 µg/kg
Rattus norvegicus [14] = test: Anti-osteoporosis activity against ovariectomized Wistar rat assessed as inhibition of ovariectomy-induced osteoporosis by measuring reduction in serum RANKL/OPG level at 7.5 ug/kg, ip administered once a week for 8 weeks following bilateral ovariectomy relative to ovariectomized control; type: functional; details: 1344 h, dose 7.5 µg/kg
Rattus norvegicus [15] = test: Anti-osteoporosis activity against ovariectomized Wistar rat assessed as inhibition of ovariectomy-induced osteoporosis by measuring decrease in serum phosphate level at 7.5 ug/kg, ip administered once a week for 8 weeks following bilateral ovariectomy; type: functional, organism-based; details: dose 7.5 µg/kg
Rattus norvegicus [16] = test: Anti-osteoporosis activity against ovariectomized Wistar rat assessed as inhibition of ovariectomy-induced osteoporosis by measuring decrease in serum calcium level at 7.5 ug/kg, ip administered once a week for 8 weeks following bilateral ovariectomy; type: functional, organism-based; details: dose 7.5 µg/kg
Rattus norvegicus [17] = test: Anti-osteoporosis activity against ovariectomized Wistar rat assessed as inhibition of ovariectomy-induced osteoporosis by measuring increase in serum osteoclacin level at 7.5 ug/kg, ip administered once a week for 8 weeks following bilateral ovariectomy relative to ovariectomized control; type: functional; parameters: scale not given: the % may be the effect or the level left; details: dose 7.5 µg/kg
Rattus norvegicus [18] = test: Anti-osteoporosis activity against ovariectomized Wistar rat assessed as inhibition of ovariectomy-induced osteoporosis by measuring decrease in urinary calcium level at 7.5 ug/kg, ip administered once a week for 8 weeks following bilateral ovariectomy; type: functional, organism-based; details: dose 7.5 µg/kg
Rattus norvegicus [19] = test: Anti-osteoporosis activity against ovariectomized Wistar rat assessed as inhibition of ovariectomy-induced osteoporosis by measuring reduction in serum RANKL level at 7.5 ug/kg, ip administered once a week for 8 weeks following bilateral ovariectomy; type: functional, organism-based; details: dose 7.5 µg/kg
Rattus norvegicus [20] = test: Anti-osteoporosis activity against ovariectomized Wistar rat assessed as inhibition of ovariectomy-induced osteoporosis by measuring decrease in bone-specific isoenzyme of alkaline phosphatase level in serum at 7.5 ug/kg, ip administered once a week for 8 weeks following bilateral ovariectomy; type: functional, organism-based; details: dose 7.5 µg/kg
Rattus norvegicus [21] = test: Anti-osteoporosis activity against ovariectomized Wistar rat assessed as inhibition of ovariectomy-induced osteoporosis by measuring serum estradiol level at 7.5 ug/kg, ip administered once a week for 8 weeks following bilateral ovariectomy; type: functional, organism-based; details: dose 7.5 µg/kg
Rattus norvegicus [22] = test: Anti-osteoporosis activity against ovariectomized Wistar rat assessed as inhibition of ovariectomy-induced osteoporosis by measuring increase in serum OPG level at 7.5 ug/kg, ip administered once a week for 8 weeks following bilateral ovariectomy relative to ovariectomized control; type: functional; parameters: scale not given: the % may be the effect or the level left; details: dose 7.5 µg/kg

With COc1cc(C=S)ccc1OCCOc1ccc(C=S)cc1OC the pIC50 [1] was 4.64.

COc1cc(/C=C/C#N)ccc1OCCOc1ccc(/C=C/C#N)cc1OC showed a pIC50 [1] of 5.49.

COc1cc(/C=C/C(C)=O)ccc1OCCOc1ccc(/C=C/C(C)=O)cc1OC was tested, and the Activity (Rattus norvegicus [2]) was 29%, the pIC50 [1] was 5.96 and the Activity (Rattus norvegicus [3]) was “inactive”. For the same molecule, the Activity (Rattus norvegicus [4]) was “Active”, the “fold change (FC)” value (Rattus norvegicus [5]) was 2 and the Activity (Rattus norvegicus [6]) was “inactive”. The Activity (Rattus norvegicus [7]) was “Active”, the Activity (Rattus norvegicus [8]) was “Active” and the inhibition in vivo at 10 mg/kg (Rattus norvegicus [9]) was 33%. The inhibition in vivo at 10 mg/kg (Rattus norvegicus [10]) was 33.3%, the Activity (Rattus norvegicus [11]) was “Active” and the Activity (Rattus norvegicus [12]) was “Active”.

With COC(=O)/C=C/c1ccc(OCCOc2ccc(/C=C/C(=O)OC)cc2OC)c(OC)c1 the pIC50 [1] was 5.91.

COc1cc(C(O)P(=O)(N(C)C)N(C)C)ccc1OCCOc1ccc(C(O)P(=O)(N(C)C)N(C)C)cc1OC (stereo unspecified) was tested, and the pIC50 [1] was 5.26.

With COc1cc(C=O)ccc1OCCOc1ccc(C=O)cc1OC the pIC50 [1] was 4.90.

In the case of COc1cc(C(O)P(=O)(OC)OC)ccc1OCCOc1ccc(C(O)P(=O)(OC)OC)cc1OC (stereo unspecified), the pIC50 [1] was 4.67.

For CCN(CC)P(=O)(C(O)c1ccc(OCCOc2ccc(C(O)P(=O)(N(CC)CC)N(CC)CC)cc2OC)c(OC)c1)N(CC)CC (stereo unspecified), the pIC50 [1] was 5.61.

With O=P(O)(O)C(O)(Cn1ccnc1)P(=O)(O)O [ZOLEDRONIC ACID ANHYDROUS] the Activity (Rattus norvegicus [13]) was “Active”, the inhibition in vivo at 0.0075 mg/kg (Rattus norvegicus [14]) was 38% and the Activity (Rattus norvegicus [15]) was “Active”. For the same molecule, the Activity (Rattus norvegicus [16]) was “Active”, the Activity (Rattus norvegicus [17]) was 174% and the Activity (Rattus norvegicus [18]) was “inactive”. The Activity (Rattus norvegicus [19]) was “inactive”, the Activity (Rattus norvegicus [20]) was “Active” and the Activity (Rattus norvegicus [21]) was “inactive”. It also gave an Activity (Rattus norvegicus [22]) of 46%.

CCOC(=O)/C=C/c1ccc(OCCOc2ccc(/C=C/C(=O)OCC)cc2OC)c(OC)c1 showed a pIC50 [1] of 5.22.

For COc1cc(C2SP(=S)(Sc3ccccc3)S2)ccc1OCCOc1ccc(C2SP(=S)(Sc3ccccc3)S2)cc1OC (stereo unspecified), the pIC50 [1] was 5.47.
